In patent publication EP4722219A1 (Gan & Lee Pharmaceuticals Co., Ltd., priority 2023, dated 2024):

How the values were obtained:
Type in all cases: cell-based
[1] = tested on: VCaP cells; assay: Inhibition of VCaP cell proliferation (WST-8); settings: Homo sapiens, 168 hours
Description: On the first day of the experiment, VCaP cells were seeded at a density of 15,000 cells/well in a 96-well plate using DMEM medium containing 10% fetal bovine serum, with 100µL of cell suspension per well, and cultured overnight in a cell incubator at 37°C and 5% CO2. On the second day, 100µL of the compound of the present invention and the positive control ARV-110 (source: Anaiji) prepared in culture medium at different concentrations were added to each well. The final concentration of the compound was 9 concentration points of 5-fold serial dilution starting from 10 µM. […] On the ninth day, the 96-well cell culture plate was removed and 1/10 volume of WST-8 (Beytime, C0040) reagent was added to each well. The absorbance at 450nm was measured using a microplate reader (TECAN, F50).

[2] = tested on: LNCaP cells; assay: Inhibition of LNCaP cell proliferation (WST-8); settings: Homo sapiens, LNCaP FGC cells, 96 hours
Description: The inhibitory activity of compounds disclosed in the present invention on LNCaP cell proliferation
The cells were cultured overnight in a 37°C, 5% CO2 cell incubator. […] The final concentration of the compound was 9 concentration points of 5-fold serial dilution starting from 10 µM. […] The cells were cultured in a cell culture incubator at 37°C and 5% CO2 for 96 hours. On the sixth day, the 96-well cell culture plate was removed, and 1/10 volume of WST-8 (Beytime, C0040) reagent was added to each well. The absorbance at 450 nm was detected using a microplate reader (TECAN, F50).

[3] = biological target: T1, AR protein (Homo sapiens, UniProt P10275, T878A); assay: AR protein degradation in LNCaP cells (Western blot); settings: 8 hours
T1 construct: host or cells: LNCaP FGC
T1 sequence (P10275 1-920 T878A): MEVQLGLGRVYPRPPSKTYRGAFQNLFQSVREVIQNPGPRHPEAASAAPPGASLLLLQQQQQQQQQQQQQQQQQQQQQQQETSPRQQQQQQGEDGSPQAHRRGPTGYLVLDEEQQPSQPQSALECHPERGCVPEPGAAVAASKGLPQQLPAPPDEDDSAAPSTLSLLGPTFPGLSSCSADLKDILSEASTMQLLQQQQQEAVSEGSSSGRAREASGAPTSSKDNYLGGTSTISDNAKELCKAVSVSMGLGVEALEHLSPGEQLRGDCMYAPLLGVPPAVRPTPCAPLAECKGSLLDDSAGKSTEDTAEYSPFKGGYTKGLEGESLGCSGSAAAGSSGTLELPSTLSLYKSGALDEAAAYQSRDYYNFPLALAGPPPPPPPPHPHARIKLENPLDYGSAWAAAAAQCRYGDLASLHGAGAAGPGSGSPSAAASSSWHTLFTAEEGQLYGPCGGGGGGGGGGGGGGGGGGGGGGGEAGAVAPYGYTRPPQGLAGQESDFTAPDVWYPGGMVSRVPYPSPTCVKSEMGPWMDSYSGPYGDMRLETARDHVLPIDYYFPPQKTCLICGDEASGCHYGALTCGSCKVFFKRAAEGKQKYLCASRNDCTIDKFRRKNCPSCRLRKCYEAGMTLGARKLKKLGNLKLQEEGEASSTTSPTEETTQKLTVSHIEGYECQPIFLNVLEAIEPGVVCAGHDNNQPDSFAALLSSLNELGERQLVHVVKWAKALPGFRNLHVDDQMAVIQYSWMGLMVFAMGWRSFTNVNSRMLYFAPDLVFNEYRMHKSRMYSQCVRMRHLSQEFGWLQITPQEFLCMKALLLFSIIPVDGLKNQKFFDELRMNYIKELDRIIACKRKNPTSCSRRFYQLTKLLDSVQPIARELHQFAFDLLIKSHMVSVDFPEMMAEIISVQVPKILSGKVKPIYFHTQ
Method in brief: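 LNCaP cells exposed to compound or solvent control for 8 h, lysed in RIPA, protein normalized by BCA. AR detected by SDS-PAGE/Western blot with infrared imaging; band grayscale normalized to GAPDH to calculate AR degradation rate.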

| Structure (SMILES) | IC50 [1] [µM] | IC50 [2] [µM] | percent AR protein degradation at a fixed concentration at 0.01 µM ([3]; 10 nM) [%] | percent AR protein degradation at a fixed concentration at 0.1 µM ([3]; 100 nM) [%] | Degradation of AR protein in LNCaP cells, 10 nM (%) ([3]; 10 nM) | Degradation of AR protein in LNCaP cells, 100 nM (%) ([3]; 100 nM) |
| --- | --- | --- | --- | --- | --- | --- |
| N#Cc1cc2c(cc1Cl)OCC1(CCN(C(=O)c3ccc(N4CCC(CN5CCC6(CCc7cc(C(=O)N[C@H]8CCC(=O)NC8=O)c(F)cc7O6)CC5)CC4)cc3)CC1)O2 [A-P-44, (S)-1'-((1-(4-(6-chloro-7-cyano-3H-spiro[benzo[b][1,4]dioxane-2,4'-piperidin]-1'-carbonyl)phenyl)piperidin-4-yl)methyl)-N-(2,6-dioxopiperidin-3-yl)-7-fluorospiro[chroman-2,4'-piperidin]-6-carboxamide] | 2.89 | 0.24 | 20 | 9 |  |  |
| CC1(CN2CCC3(CCc4cc(C(=O)N[C@H]5CCC(=O)NC5=O)c(F)cc4O3)CC2)CCN(c2ccc(C(=O)N[C@H]3C(C)(C)[C@H](Oc4ccc(C#N)c(Cl)c4)C3(C)C)cc2)CC1 [A-P-55] | 1.05 | 0.95 |  |  | -15 | 15 |
| C[C@H]1CC2(CCN(c3ccc(N4CCC(CN5CCC6(CC5)CCC5(CC6)COc6c5ccc5c6CN(C6CCC(=O)NC6=O)C5=O)CC4)cc3)CC2)CN1c1ccc(C#N)c(Cl)c1 (stereo partly drawn) [A-P-8, (S)-1'-((1-(4-(6-chloro-7-cyanospiro-spiro[tryptophan-3,4'-piperidin]-1'-yl)benzoyl)piperidin-4-yl)methyl)-N-(2,6-dioxopiperidin-3-yl)-7-fluoro-spiro[tryptophan-2,4'-pyridyl]-6-carboxamide] | 0.005 | 0.2 | -4 | 63 |  |  |
| C[C@H]1CC2(CCN(c3ccc(C(=O)N4CCC(CN5CCN6c7ccc(C(=O)N[C@H]8CCC(=O)NC8=O)c(F)c7OC[C@H]6C5)CC4)cc3)CC2)CN1c1ccc(C#N)c(Cl)c1 [A-P-62, (R)-3-((1-(4-((S)-2-(3-chloro-4-cyanophenyl)-3-methyl-2,8-diazaspiro[4.5]decan-8-yl)benzoyl)piperidin-4-yl)methyl)-N-((S)-2,6-dioxopiperidin-3-yl)-7-fluoro-1,2,3,4,4a,5-hexahydrobenzo[b]pyrazi no[1,2-d][1,4]oxazine-8-carboxamide] | 0.45 | 9.54 | 47 | 72 |  |  |
| COc1cc2c(cc1C(=O)N[C@H]1CCC(=O)NC1=O)OCC21CCN(CC2CCN(c3ccc(N4CCC5(CC4)C[C@H](C)N(c4ccc(C#N)c(Cl)c4)C5)cc3)CC2)CC1 [A-P-80, 1'-((1-(4-((S)-2-(3-chloro-4-cyanophenyl)-3-methyl-2,8-diazaspiro[4.5]decan-8-yl)phenyl)piperidin-4-yl)methyl)-N-((S)-2,6-dioxopiperidin-3-yl)-5-methoxy-2H-spiro[benzofuran-3,4'-piperidin]-6-carboxamide] | 0.051 | 1.94 | 22 | 73 |  |  |
| COc1cc2c(cc1C(=O)N[C@H]1CCC(=O)NC1=O)C1(CCN(CC3CCN(C(=O)c4ccc(N5CCC6(CC5)C[C@H](C)N(c5ccc(C#N)c(Cl)c5)C6)cc4)CC3)CC1)CO2 [A-P-82, 1'-((1-(4-((S)-2-(3-chloro-4-cyanophenyl)-3-methyl-2,8-diazaspiro[4.5]decan-8-yl)benzoyl)piperidin-4-yl)methyl)-N-((S)-2,6-dioxohesperidin-3-yl)-6-methoxy-2H-spiro[benzofuran-3,4'-piperidin]-5-carboxamide] | 0.049 | 15.7 | 55 | 83 |  |  |
| N#Cc1cc2c(cc1Cl)OC1(CCN(C(=O)c3ccc(N4CCC(CN5CCC6(CCc7cc(C(=O)N[C@H]8CCC(=O)NC8=O)c(F)cc7O6)CC5)CC4)cc3)CC1)CO2 [A-P-53, (S)-1'-((1-(4-(7-chloro-6-cyano-3H-spiro[benzo[b][1,4]dioxane-2,4'-piperidin]-1'-carbonyl)phenyl)piperidin-4-yl)methyl)-N-(2,6-dioxopiperidin-3-yl)-7-fluorospiro[chroman-2,4'-piperidin]-6-carboxamide] | 1.32 | 0.14 | -11 | -3 |  |  |
